Results published in PubChem BioAssay (NCI).
Several values for one entry are separate records, joined by “and”; a condition that tells them apart may be missing. Equal entries are not always repeated.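 Cells were grown in 96-well plates and exposed to each compound for 48 hours at five concentrations; endpoints were interpolated linearly between bracketing concentrations, or set to the highest concentration if not reached. GI50 = concentration required for 50% inhibition of growth. TGI: total growth inhibition.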

Legend:
Assay in all cases: NCI-60 cell line screen, 48 h
RPMI-8226 leukemia = test system: RPMI-8226 leukemia
786-0 renal = test system: 786-0 renal
SK-MEL-5 melanoma = test system: SK-MEL-5 melanoma
M14 melanoma = test system: M14 melanoma
SF-268 CNS = test system: SF-268 CNS
BT-549 breast = test system: BT-549 breast
IGROV1 ovarian = test system: IGROV1 ovarian
T-47D breast = test system: T-47D breast
SK-MEL-2 melanoma = test system: SK-MEL-2 melanoma
SNB-75 CNS = test system: SNB-75 CNS

Structure (SMILES)	GI50 (RPMI-8226 leukemia)	TGI (RPMI-8226 leukemia)	GI50 (786-0 renal)	GI50 (SK-MEL-5 melanoma)	TGI (SK-MEL-5 melanoma)	GI50 (M14 melanoma)	TGI (M14 melanoma)	GI50 (SF-268 CNS)	TGI (SF-268 CNS)	GI50 (BT-549 breast)	TGI (BT-549 breast)	GI50 (IGROV1 ovarian)	TGI (IGROV1 ovarian)	GI50 (T-47D breast)	TGI (T-47D breast)	GI50 (SK-MEL-2 melanoma)	TGI (SK-MEL-2 melanoma)	GI50 (SNB-75 CNS)	TGI (SNB-75 CNS)	TGI (786-0 renal)
CC12CCC3C(CCC4Cc5[nH]c6ccccc6c5CC43C)C1CCC2O (stereo unspecified)	1.13 µM	4.52 µM	0.835 µM	0.75 µM	> 100 µM	0.753 µM	> 19.8 µM	2.55 µM	> 100 µM	2.65 µM	> 100 µM	0.768 µM	> 100 µM	2.3 µM	> 100 µM	4.28 µM	> 100 µM	0.574 µM	> 100 µM	
O=C[C@@H](CO)O[C@H](C=O)c1c[nH]c(=O)[nH]c1=O		672 µM			309 µM		527 µM		427 µM		286 µM		343 µM		606 µM		3680 µM		1310 µM	1310 µM
CCSCC1CC(O)(c2ccccc2)C(c2ccccc2)C(c2ccc(Cl)cc2)O1 (stereo unspecified)	1.56 µM	4.66 µM	1.64 µM	1.64 µM	3.01 µM	1.81 µM	3.4 µM	2.1 µM	5.56 µM	1.76 µM	3.63 µM	2.01 µM	4.88 µM	1.42 µM	4.57 µM	1.73 µM	3.5 µM	1.75 µM	4.72 µM	3.26 µM
COc1c(C=O)c2c(c(OC)c1OC)-c1ccc(OC)c(=O)cc1[C@@H](NC(C)=O)CC2		47.2 µM			0.272 µM		> 25.2 µM		30.3 µM		> 100 µM		76.6 µM		> 100 µM		2.57 µM		> 100 µM	> 75.6 µM
COc1ccc(C(=O)c2cc(OC)c(OC)c(OC)c2)cc1		76.3 µM			26.3 µM		> 100 µM		> 86.8 µM		> 100 µM		> 100 µM		66.7 µM		> 100 µM		0.988 µM	> 79.2 µM
Cc1c(N2CCCC2)cc2c(c1NC(=O)c1ccccc1Cl)C(C)(C)CC2(C)C		34.2 µM			33.7 µM		26.8 µM		30.6 µM		32 µM		28 µM		24.6 µM		30 µM		28.9 µM	27.8 µM
O=C(O)C/C(=C\c1ccco1)C(=O)O		> 100 µM			> 100 µM		> 100 µM				> 100 µM		> 100 µM		> 100 µM		> 100 µM		> 100 µM	> 100 µM
CCN1CCN(Cc2ccc(-c3cc4c(N[C@H](C)c5ccccc5)ncnc4[nH]3)cc2)CC1	3.54 µM and 2.13 µM	13.4 µM and 6.94 µM	2.02 µM and 1.91 µM	1.76 µM and 1.72 µM	3.68 µM and 3.88 µM	1.84 µM and 1.92 µM	3.77 µM and 4.4 µM	2.43 µM and 4.11 µM	18.7 µM and > 10 µM	6.3 µM and > 10 µM	22.3 µM and > 10 µM	0.112 µM and 0.176 µM	1.51 µM and 7.17 µM	1.36 µM and 0.765 µM	19.2 µM and > 10 µM	4.86 µM and > 10 µM	17.4 µM and > 10 µM	1.48 µM and 1.88 µM	9.56 µM and 8.12 µM	8.93 µM and 7.74 µM
Cc1c2cc[n+](C)cc2c(C)c2c1sc1ccccc12		5.68 µM			4.56 µM		14.2 µM		1.14 µM		1.37 µM		28.4 µM		3.67 µM		7.71 µM		0.804 µM	2.9 µM
F	3060 µM	> 6870 µM	2550 µM	1420 µM	2700 µM	2260 µM	5900 µM	3540 µM	> 6870 µM	3050 µM	> 6870 µM	2800 µM	> 6870 µM	2100 µM	5670 µM	1440 µM	2890 µM	2160 µM	5570 µM	> 6870 µM
C[C@@H]1COCCN1c1cc(C2([S@](C)(=N)=O)CC2)nc(-c2ccnc3[nH]ccc23)n1	3.96 µM and 6.76 µM	47.5 µM and > 10 µM	1.39 µM and 2.03 µM	3.6 µM and 3.87 µM	15.7 µM and > 10 µM	1.69 µM and 2.38 µM	9.96 µM and > 10 µM	7.1 µM and > 10 µM	> 100 µM	1.83 µM and 2.92 µM	27.7 µM and > 10 µM	4.24 µM and 2.23 µM	68.6 µM and > 10 µM	3.96 µM and 7.78 µM	35.8 µM and > 10 µM	3.74 µM and 1.56 µM	26.2 µM and > 10 µM	2.29 µM and 2.16 µM	20.3 µM and > 10 µM	16.1 µM and > 10 µM
CC(=O)N[C@@H](Cc1ccc(OP(=O)(O)O)cc1)C(=O)N[C@H]1CCC(=O)N2CCC[C@@H](C(=O)NCc3ccc(Cl)cc3)N2C1=O	> 25 µM	> 25 µM	> 25 µM	> 25 µM	> 25 µM	> 25 µM	> 25 µM	> 25 µM	> 25 µM	> 25 µM	> 25 µM	> 25 µM	> 25 µM	> 25 µM	> 25 µM	> 25 µM	> 25 µM	> 25 µM	> 25 µM	> 25 µM
Nc1ccc2c(c1)C(=O)C(=O)c1c-2nc2ccccn12	1.8 µM	4.71 µM	2.24 µM	0.178 µM	0.329 µM	0.281 µM	0.741 µM			1.49 µM	2.82 µM	1.52 µM	3.55 µM	1.76 µM	4.13 µM	1.68 µM	3.7 µM	1.04 µM	2.28 µM	4.86 µM
COc1ccc(OC)c(/C=N/NC(=O)Cc2csc3nc(-c4ccc(Br)cc4)cn23)c1	10.3 µM	> 100 µM	26.3 µM	8.89 µM	42.5 µM	15.1 µM	72.1 µM	> 100 µM	> 100 µM	12.9 µM	33.6 µM	4.02 µM	26.7 µM	41.2 µM	> 100 µM	89.7 µM	> 100 µM	23.9 µM	65.4 µM	> 100 µM
CCCCCCCCCCCCNC(C)=O		30.7 µM			30.4 µM		32.6 µM		29.5 µM		30.8 µM				66.3 µM		28.1 µM		55.8 µM	32.5 µM
COc1cccc2c1C(=O)C=CC2=O		7.23 µM			30.3 µM		20.7 µM		19.8 µM		29.1 µM		27.2 µM		5.04 µM		19.8 µM		29.9 µM	23.9 µM
Cc1cccc(NC(=O)CCc2ccc(N3C(N)=NC(N)=NC3(C)C)cc2)c1	3.17 µM	> 100 µM	18.9 µM	2.48 µM	> 100 µM	> 29.2 µM	> 100 µM	0.547 µM	> 100 µM	10.9 µM	> 100 µM	0.603 µM	> 100 µM	38.6 µM	> 100 µM	> 33.6 µM	> 100 µM		> 100 µM	> 100 µM
C=CC[n+]1c(/C=C/C=C2\N(C)c3ccccc3C2(C)C)sc2ccc(OC)cc21	0.0692 µM	0.705 µM	0.363 µM	0.0615 µM	0.239 µM	0.331 µM	2.59 µM	0.321 µM	19.6 µM	0.149 µM	2.99 µM	0.521 µM	21.6 µM	0.0231 µM	0.561 µM	0.27 µM	5.22 µM	0.283 µM	14.1 µM	18.8 µM
FC(F)(F)c1nc(N2CCCC2)ncc1-c1nnnn1-c1ccc(Cl)cc1	1.41 µM	12.8 µM	33.2 µM	12 µM	28.3 µM	20.2 µM	55.3 µM	23.7 µM	> 100 µM	31 µM	> 100 µM	25.5 µM	> 100 µM	5.29 µM	> 100 µM	18 µM	> 100 µM	12 µM	65.3 µM	> 100 µM
OC(c1cccc(-n2ccc(C(F)(F)F)n2)c1)c1cnccc1NC1CCCCCC1 (stereo unspecified)	1.57 µM	4.51 µM	1.72 µM	1.73 µM	3.18 µM	1.78 µM	3.29 µM	1.69 µM	3.25 µM	1.63 µM	3.06 µM	1.53 µM	2.92 µM	1.77 µM	4.23 µM	2.01 µM	3.82 µM	1.36 µM	2.67 µM	3.18 µM
Cc1ccc(S(=O)(=O)OC2CCN(C)CC2)cc1		49.8 µM			44.6 µM		> 100 µM		> 100 µM		> 100 µM		> 100 µM		48.6 µM		> 100 µM		> 100 µM	> 100 µM
CC(C)[C@]12O[C@H]1[C@@H]1O[C@]13[C@]1(O[C@H]1C[C@H]1C4=C(CC[C@@]13C)C(=O)OC4)[C@@H]2O	0.0036 µM and 0.011 µM	0.0265 µM and 0.0915 µM	0.0303 µM	0.0131 µM	0.0213 µM and 0.0265 µM	0.0158 µM	0.0312 µM and 0.0361 µM		0.241 µM and 0.218 µM	0.0214 µM and < 0.013 µM	0.178 µM and 0.0347 µM	0.0257 µM	> 100 µM	0.0211 µM and 0.0292 µM		0.0157 µM	0.0195 µM and 0.0323 µM	0.0168 µM	0.035 µM and 0.0398 µM	> 100 µM
CC1(C)N=C(N)N=C(N)N1c1cccc(CCCCc2cccc(S(=O)(=O)F)c2)c1	2.31 µM	35.2 µM	2.12 µM	0.535 µM	14.8 µM	2.92 µM	> 100 µM	0.887 µM	20.8 µM	0.973 µM	> 43.1 µM	0.157 µM	> 58.3 µM	12.3 µM	45.1 µM	2.73 µM	> 58.5 µM	0.98 µM	23.7 µM	> 100 µM
COc1ccc2[nH]c(=O)c3c4ccccc4cn3c2c1	0.358 µM	2.03 µM	0.553 µM	0.377 µM	1.44 µM	0.494 µM	1.92 µM	0.516 µM	3.19 µM	7.3 µM	20.9 µM	0.575 µM	5.23 µM	0.756 µM	3.84 µM	1.35 µM	7.66 µM	0.366 µM	9.47 µM	1.95 µM
CCN(CC)CCOCC[C@H]1CC[C@H]2[C@@H]3[C@H](C)Cc4cc(OS(N)(=O)=O)ccc4[C@H]3CC[C@]12C	0.704 µM	2.67 µM	1.28 µM	1.04 µM	2.23 µM	1.26 µM	2.59 µM	1.31 µM	2.66 µM	1.67 µM	3.99 µM	2.41 µM	8 µM	0.277 µM	2.94 µM	2.32 µM	4.45 µM	1.24 µM	3.13 µM	2.6 µM
COc1ccc(-c2cc(-c3cc(Cl)ccc3Cl)nc3n[nH]c(N)c23)cc1	22.8 µM	70.2 µM	19.3 µM	14.4 µM	34.5 µM	29.5 µM	> 100 µM	4.32 µM	24.5 µM	38.1 µM	> 100 µM	28.3 µM	> 100 µM	30.8 µM	> 100 µM	36.1 µM	> 100 µM	20.9 µM	> 100 µM	54.1 µM
CCOC(=O)c1ccc2[nH]c(-c3ccc(S(=O)(=O)F)cc3)cc(=O)c2c1		> 100 µM			> 100 µM		> 100 µM		> 100 µM		> 100 µM		> 100 µM		> 100 µM		> 100 µM		> 100 µM	> 100 µM
CC[C@]12CCCN3CCc4c(n(c5ccccc45)C(=O)C1)[C@@H]32		> 65.1 µM			> 35.1 µM		> 65.5 µM		> 75 µM		> 100 µM		> 100 µM		> 100 µM		> 100 µM		78.4 µM	> 56.2 µM
CN(C)CCOc1ccc(-c2nc(-c3ccc4c(c3)CC/C4=N\O)c(-c3ccncc3)[nH]2)cc1	5.75 µM and 16.8 µM	13.7 µM and 77 µM	5.02 µM and 2.22 µM	3.31 µM and 5.46 µM	6.81 µM and 19.9 µM	0.0258 µM and 0.054 µM	2.14 µM and 3.69 µM	4.38 µM and 7.26 µM	9.05 µM and 15.4 µM	4.73 µM and 15 µM	9.3 µM and 44.1 µM	4.38 µM and 18.6 µM	9.35 µM and 65.6 µM	4.8 µM and 7.63 µM	9.55 µM and 30.6 µM	0.108 µM and 0.367 µM		0.403 µM and 1.11 µM	5.48 µM and 11 µM	9.83 µM and 4.17 µM
